Target: URAT-1 transporter (Homo sapiens (Human), UniProt Q96S37)
Assay: URAT-1 inhibitor activity: [14C]-uric acid uptake in CHO-URAT1(L)GFP#8 (CHO#8) cells, scintillation proximity
Format: cell-based
Details: inhibition of [14C]-uric acid (30 nM) uptake into CHO#8 cells; compound 0 to 10 μM; 4 parameter logistic fit
Outline: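 CHO cells stably expressing human URAT1 long isoform–eGFP fusion, pre-incubated 1 h in chloride-containing buffer pH 7.4, then given 30 nM [14C]-uric acid with compound (0–10 μM, 0.25% DMSO) in chloride-free gluconate buffer pH 7.4. Uptake measured by scintillation proximity on Cytostar plates.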

URAT-1 transporter, sequence (Q96S37 other isoform, or with tags, fused parts or gaps): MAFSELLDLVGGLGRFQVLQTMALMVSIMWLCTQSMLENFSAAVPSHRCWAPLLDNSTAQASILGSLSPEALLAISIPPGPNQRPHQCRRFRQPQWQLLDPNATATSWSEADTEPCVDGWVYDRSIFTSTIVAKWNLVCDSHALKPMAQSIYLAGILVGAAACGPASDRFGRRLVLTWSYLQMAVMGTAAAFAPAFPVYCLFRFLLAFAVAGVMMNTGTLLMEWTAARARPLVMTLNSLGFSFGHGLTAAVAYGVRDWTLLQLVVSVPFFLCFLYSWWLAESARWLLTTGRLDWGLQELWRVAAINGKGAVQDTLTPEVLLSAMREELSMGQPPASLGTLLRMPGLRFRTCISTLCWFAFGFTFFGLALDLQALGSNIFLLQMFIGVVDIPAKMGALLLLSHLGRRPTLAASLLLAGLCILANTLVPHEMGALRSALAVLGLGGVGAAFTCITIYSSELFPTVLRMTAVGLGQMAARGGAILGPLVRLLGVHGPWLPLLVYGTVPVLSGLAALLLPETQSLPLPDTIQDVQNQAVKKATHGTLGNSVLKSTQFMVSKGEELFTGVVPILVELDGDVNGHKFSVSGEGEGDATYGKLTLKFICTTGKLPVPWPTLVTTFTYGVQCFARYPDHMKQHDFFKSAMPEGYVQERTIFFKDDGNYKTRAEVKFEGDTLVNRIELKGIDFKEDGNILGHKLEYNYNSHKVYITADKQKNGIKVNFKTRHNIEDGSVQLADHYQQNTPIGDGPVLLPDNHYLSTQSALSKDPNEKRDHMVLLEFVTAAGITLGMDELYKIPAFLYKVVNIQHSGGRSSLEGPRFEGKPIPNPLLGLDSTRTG

Row | Compound | IC50 [nM]
1 | CCOc1ccc(Oc2ccc(S(=O)(=O)Nc3ccc(F)cn3)cc2C#N)cc1Cl [Example 116, 4-(3-chloro-4-ethoxyphenoxy)-3-cyano-N-(5-fluoropyridin-2-yl)benzenesulfonamide] | > 10000
2 | CCc1cccc(Oc2ccc(S(=O)(=O)Nc3ccc(F)cn3)cc2C#N)c1 [Example 2, 3-cyano-4-(3-ethylphenoxy)-N-(5-fluoropyridin-2-yl)benzenesulfonamide] | > 10000
3 | N#Cc1ccc(Oc2ccc(S(=O)(=O)Nc3ccccn3)cc2C#N)cc1Cl [Example 89, 4-(3-chloro-4-cyanophenoxy)-3-cyano-N-(pyridin-2-yl)benzenesulfonamide] | 105
4 | CCOc1ccccc1Oc1ccc(S(=O)(=O)Nc2ccc(F)cn2)cc1C#N [Example 151, 3-cyano-4-(2-ethoxyphenoxy)-N-(5-fluoropyridin-2-yl)benzenesulfonamide] | > 10000
5 | N#Cc1cc(S(=O)(=O)Nc2ccccn2)ccc1Oc1ccc(Cl)cc1I [Example 80, 4-(4-chloro-2-iodophenoxy)-3-cyano-N-(pyridin-2-yl)benzenesulfonamide] | 728
6 | O=S(=O)(Nc1ncccn1)c1cc(Cl)c(Oc2ccc(Cl)cc2OC(F)F)cc1F [Example 83, 5-chloro-4-[4-chloro-2-(difluoromethoxy)phenoxy]-2-fluoro-N-(pyrimidin-2-yl)benzenesulfonamide] | > 5970
7 | CCOc1cccc(Oc2ccc(S(=O)(=O)Nc3ccc(F)cn3)cc2C#N)c1 [Example 135, 3-cyano-4-(3-ethoxyphenoxy)-N-(5-fluoropyridin-2-yl)benzenesulfonamide] | > 10000
8 | Cc1cc(Oc2ccc(S(=O)(=O)Nc3ccc(F)cn3)cc2C#N)cc(C)c1C#N [Example 79, 3-cyano-4-(4-cyano-3,5-dimethylphenoxy)-N-(5-fluoropyridin-2-yl)benzenesulfonamide] | 7
9 | N#Cc1cc(S(=O)(=O)Nc2ccc(F)cn2)ccc1Oc1ccc(OC(F)(F)F)cc1 [Example 35, 3-cyano-N-(5-fluoropyridin-2-yl)-4-[4-(trifluoromethoxy)phenoxy]benzenesulfonamide] | > 10000
10 | N#Cc1cc(S(=O)(=O)Nc2ccc(F)cn2)ccc1Oc1cccc(F)c1 [Example 52, 3-cyano-4-(3-fluorophenoxy)-N-(5-fluoropyridin-2-yl)benzenesulfonamide] | 259
11 | COc1cc(Cl)ccc1Oc1ccc(S(=O)(=O)Nc2ccc(F)cn2)cc1C#N [Example 143, 4-(4-chloro-2-methoxyphenoxy)-3-cyano-N-(5-fluoropyridin-2-yl)benzenesulfonamide] | 79
12 | CCOc1ncc(Oc2ccc(S(=O)(=O)Nc3ccc(F)cn3)cc2C#N)cc1Cl [Example 125, 4-[(5-chloro-6-ethoxypyridin-3-yl)oxy]-3-cyano-N-(5-fluoropyridin-2-yl)benzenesulfonamide] | 237
13 | COc1cc(F)cc(Oc2ccc(S(=O)(=O)Nc3ccc(F)cn3)cc2C#N)c1 [Example 8, 3-cyano-4-(3-fluoro-5-methoxyphenoxy)-N-(5-fluoropyridin-2-yl)benzenesulfonamide] | 119
14 | COc1cc(C)ccc1Oc1ccc(S(=O)(=O)Nc2ccc(F)cn2)cc1C#N [Example 140, 3-cyano-N-(5-fluoropyridin-2-yl)-4-(2-methoxy-4-methylphenoxy)benzenesulfonamide] | > 10000
15 | CC(C)c1cccc(Oc2ccc(S(=O)(=O)Nc3ccc(F)cn3)cc2C#N)c1 [Example 57, 3-cyano-N-(5-fluoropyridin-2-yl)-4-[3-(propan-2-yl)phenoxy]benzenesulfonamide] | > 10000
16 | Cc1cc(Cl)c(Oc2ccc(S(=O)(=O)Nc3ccc(F)cn3)cc2C#N)cc1C [Example 136, 4-(2-chloro-4,5-dimethylphenoxy)-3-cyano-N-(5-fluoropyridin-2-yl)benzenesulfonamide] | > 10000
17 | N#Cc1cc(S(=O)(=O)Nc2ccc(F)cn2)ccc1Oc1cc(F)cc(F)c1Cl [Example 32, 4-(2-chloro-3,5-difluorophenoxy)-3-cyano-N-(5-fluoropyridin-2-yl)benzenesulfonamide] | 212
18 | Cc1cccc(C)c1Oc1ccc(S(=O)(=O)Nc2ccc(F)cn2)cc1C#N [Example 152, 3-cyano-4-(2,6-dimethylphenoxy)-N-(5-fluoropyridin-2-yl)benzenesulfonamide] | 50
19 | N#Cc1cc(S(=O)(=O)Nc2ccc(F)cn2)ccc1Oc1cccc(OC(F)(F)F)c1 [Example 18, 3-cyano-N-(5-fluoropyridin-2-yl)-4-[3-(trifluoromethoxy)phenoxy]benzenesulfonamide] | > 10000
20 | N#Cc1cc(S(=O)(=O)Nc2ccc(F)cn2)ccc1Oc1c(F)ccc(F)c1F [Example 134, 3-cyano-N-(5-fluoropyridin-2-yl)-4-(2,3,6-trifluorophenoxy)benzenesulfonamide] | > 10000
21 | Cc1cc(Oc2ccc(S(=O)(=O)Nc3ccc(F)cn3)cc2C#N)cc(C(C)C)c1 [Example 105, 3-cyano-N-(5-fluoropyridin-2-yl)-4-[3-methyl-5-(propan-2-yl)phenoxy]benzenesulfonamide] | > 10000
22 | N#Cc1cc(S(=O)(=O)Nc2ccc(F)cn2)ccc1Oc1ccc(Cl)c(F)c1 [Example 55, 4-(4-chloro-3-fluorophenoxy)-3-cyano-N-(5-fluoropyridin-2-yl)benzenesulfonamide] | 129
23 | CC(C)(C)c1cccc(Oc2ccc(S(=O)(=O)Nc3ccc(F)cn3)cc2C#N)c1 [Example 129, 4-(3-tert-butylphenoxy)-3-cyano-N-(5-fluoropyridin-2-yl)benzenesulfonamide] | > 10000
24 | N#Cc1ccc(F)c(Oc2ccc(S(=O)(=O)Nc3ccc(F)cn3)cc2C#N)c1 [Example 69, 3-cyano-4-(5-cyano-2-fluorophenoxy)-N-(5-fluoropyridin-2-yl)benzenesulfonamide] | 1310
25 | Cc1cc(Oc2ccc(S(=O)(=O)Nc3ccc(F)cn3)cc2C#N)cc(C)c1C#N [compound 235, 3-cyano-4-({4-cyano-3,5-bis[methyl-D3]-2,3-D2-phenyl}oxy)-N-(5-fluoropyridin-2-yl)benzenesulfonamide] | 13
26 | CC(C)COc1ccc(Oc2ccc(S(=O)(=O)Nc3ccc(F)cn3)cc2C#N)cn1 [Example 121, 3-cyano-N-(5-fluoropyridin-2-yl)-4-{[6-(2-methylpropoxy)pyridin-3-yl]oxy}benzenesulfonamide] | > 10000
27 | N#Cc1cc(S(=O)(=O)Nc2cccnn2)ccc1Oc1ccc(Cl)cc1OC(F)F [Example 86, 4-[4-chloro-2-(difluoromethoxy)phenoxy]-3-cyano-N-(pyridazin-3-yl)benzenesulfonamide] | > 5330

More lines, now with the values ahead:

Row | IC50 [nM] | Compound
28 | > 10000 | N#Cc1c(Cl)cccc1Oc1ccc(S(=O)(=O)Nc2cccnc2)cc1 [Example 219, 4-(3-chloro-2-cyanophenoxy)-N-(pyridin-3-yl)benzenesulfonamide]
29 | 1150 | CC(C)(O)c1ccc(Oc2ccc(S(=O)(=O)Nc3ccc(F)cn3)cc2C#N)cc1 [compound 234]
30 | > 10000 | COc1cccc(Oc2ccc(S(=O)(=O)Nc3ccc(F)cn3)cc2C#N)c1C [Example 181, 3-cyano-N-(5-fluoropyridin-2-yl)-4-(3-methoxy-2-methylphenoxy)benzenesulfonamide]
31 | 1080 | N#Cc1cncc(Oc2ccc(S(=O)(=O)Nc3ccc(F)cn3)cc2C#N)c1 [Example 206, 3-cyano-4-[(5-cyanopyridin-3-yl)oxy]-N-(5-fluoropyridin-2-yl)benzenesulfonamide]
32 | 2630 | N#Cc1ccc(Oc2ccc(S(=O)(=O)Nc3ccc(F)cn3)cc2C#N)cn1 [Example 205, 3-cyano-4-[(6-cyanopyridin-3-yl)oxy]-N-(5-fluoropyridin-2-yl)benzenesulfonamide]
33 | 53 | N#Cc1cc(S(=O)(=O)Nc2ccc(F)cn2)ccc1Oc1cnc(OC(F)F)c(Cl)c1 [compound 231]
34 | > 1150 | N#Cc1cc(Oc2cc(F)c(S(=O)(=O)Nc3ncc(F)cn3)cc2Cl)ccc1F [compound 214]
35 | 106 | N#Cc1cc(S(=O)(=O)Nc2ccc(F)cn2)ccc1Oc1ccc(Cl)c(CO)c1 [compound 240]
36 | > 10000 | N#Cc1cc(S(=O)(=O)Nc2ccc(F)cn2)ccc1Oc1ccccn1 [Example 187, 3-cyano-N-(5-fluoropyridin-2-yl)-4-(pyridin-2-yloxy)benzenesulfonamide]
37 | 6160 | CC(C)c1cc(Oc2ccc(S(=O)(=O)Nc3ccc(F)cn3)cc2C#N)ccc1Cl [Example 164, 4-[4-chloro-3-(propan-2-yl)phenoxy]-3-cyano-N-(5-fluoropyridin-2-yl)benzenesulfonamide]
38 | > 10000 | Cc1ccnc(NS(=O)(=O)c2ccc(Oc3cccc(Cl)c3C#N)cc2)c1 [Example 216, 4-(3-chloro-2-cyanophenoxy)-N-(4-methylpyridin-2-yl)benzenesulfonamide]
39 | > 10000 | CC(C)Oc1ccc(F)cc1Oc1ccc(S(=O)(=O)Nc2ccc(F)cn2)cc1C#N [Example 156, 3-cyano-4-[5-fluoro-2-(propan-2-yloxy)phenoxy]-N-(5-fluoropyridin-2-yl)benzenesulfonamide]
40 | 570 | N#Cc1cc(S(=O)(=O)Nc2ccc(F)cn2)ccc1Oc1cc(Cl)ccc1Cl [Example 170, 3-cyano-4-(2,5-dichlorophenoxy)-N-(5-fluoropyridin-2-yl)benzenesulfonamide]
41 | 1020 | N#Cc1cc(S(=O)(=O)Nc2ccc(F)cn2)ccc1Oc1cc(F)ccc1Cl [Example 176, 4-(2-chloro-5-fluorophenoxy)-3-cyano-N-(5-fluoropyridin-2-yl)benzenesulfonamide]
42 | 1990 | Cc1ccc(Oc2ccc(S(=O)(=O)Nc3ccc(F)cn3)cc2C#N)cc1 [Example 191, 3-cyano-N-(5-fluoropyridin-2-yl)-4-(4-methylphenoxy)benzenesulfonamide]
43 | 244 | N#Cc1ccc(Oc2ccc(S(=O)(=O)Nc3ccc(F)cn3)cc2Cl)cc1F [compound 228]
44 | > 10000 | N#Cc1ccc(Oc2cc(F)c(S(=O)(=O)Nc3ccc(F)cn3)cc2Cl)cc1F [compound 215]

From US9067922B2, “Chemical compounds” (Pfizer Limited, priority 2013, dated 2015)
